Reference: patent US5736376A, “Recombinant endothelin converting enzyme-2 and its use in ECE inhibitor screening” (Board of Regents, The University of Texas System, priority 1995, dated 1998)
“Also recorded” adds a separate entry of the source. Blank lines part the entries; values can stand above or below the molecule they belong to. Where no end group is shown, it is not given here.

What was measured:
ECE-2 [1] = biological target: T1, ECE-2 (Bos taurus, UniProt P0DPE2); assay: Substrate kinetics and isopeptide substrate selectivity of ECE-2; assay type: biochemical, bovine
T1 construct: solubilized crude membranes or live cells
T1 sequence (P0DPE2 97-883): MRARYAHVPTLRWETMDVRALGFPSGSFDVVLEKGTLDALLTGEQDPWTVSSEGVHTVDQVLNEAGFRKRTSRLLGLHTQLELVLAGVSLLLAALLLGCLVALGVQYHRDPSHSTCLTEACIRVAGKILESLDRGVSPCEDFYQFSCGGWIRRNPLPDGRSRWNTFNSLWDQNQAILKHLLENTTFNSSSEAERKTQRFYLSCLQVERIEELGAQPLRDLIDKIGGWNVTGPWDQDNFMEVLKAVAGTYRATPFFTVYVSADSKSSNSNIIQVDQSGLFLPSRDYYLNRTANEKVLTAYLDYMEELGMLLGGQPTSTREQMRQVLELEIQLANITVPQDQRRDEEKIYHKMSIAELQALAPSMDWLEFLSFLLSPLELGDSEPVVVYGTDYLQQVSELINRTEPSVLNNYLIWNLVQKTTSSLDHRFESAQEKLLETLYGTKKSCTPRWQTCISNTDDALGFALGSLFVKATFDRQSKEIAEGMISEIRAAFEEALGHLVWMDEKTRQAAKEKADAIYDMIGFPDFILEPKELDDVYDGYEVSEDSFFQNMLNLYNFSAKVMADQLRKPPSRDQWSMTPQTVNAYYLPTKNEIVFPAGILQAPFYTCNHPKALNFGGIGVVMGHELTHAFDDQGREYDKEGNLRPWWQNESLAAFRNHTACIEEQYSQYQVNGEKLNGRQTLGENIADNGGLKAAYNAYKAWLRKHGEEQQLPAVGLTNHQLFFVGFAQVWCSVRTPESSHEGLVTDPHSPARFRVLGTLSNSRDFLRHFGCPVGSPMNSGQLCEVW
Procedure: Isopeptide substrate selectivity of ECE-2. Substrates are: closed circles, big ET-1 (1-38); closed squares, big ET-2 (1-38); and closed triangles, big ET-3 (1-41 Amide). Activity is reported as conversion (fmol/30 min) vs μg of membrane protein.
Solubilized crude membranes were prepared in parallel from CHO/ECE-2 and CHO/ECE-1 cells as described (Xu et al., 1994). […] Standard reaction mixtures for the ECE-2 assay (50 μl) contained 0.1M 2-[N-morpholino]ethanesulfonic acid (MES) buffer (pH 5.5), 0.5M NaCl, 0.1 μM human big ET-1 and an enzyme fraction. […] For the pH profiling and isopeptide selectivity studies, the buffer solution (0.1M) or the substrate (0.1 μM) was substituted as designated. […] Reactions were started by the addition of substrate, and incubated at 37° C. for 30 min in siliconized 0.5-ml microcentrifuge tubes. […] The mixture was then directly assayed for mature ET-1 as described (Suzuki et al., 1989). Duplicate assay wells were used for each enzyme reaction. For big ET-2 and big ET-3 conversion assays, mature ET-1 EIA (which fully cross-reacts with mature ET-2) and mature ET-3 EIA were used with human ET-2 and ET-3 as standards, respectively (Matsumoto et al., 1989). Protein concentrations were determined by the Bradford method (Bio-Rad) using IgG as standard.

[2] = Stability of big and mature endothelin isopeptides with crude membrane proteins, ECE-2 assay conditions (pH 5.6); assay type: physicochemical
ECE-1 [3] = biological target: T2, ECE-1 (Bos taurus, UniProt P42891); assay: Substrate kinetics and isopeptide substrate selectivity of ECE-1; assay type: biochemical, bovine; settings: big ET-1 0.01-10 μM; 20 μg crude membrane proteins, 30 min; read-out: apparent Km of ECE-1
T2 construct: made in house
T2 sequence (P42891 1-754): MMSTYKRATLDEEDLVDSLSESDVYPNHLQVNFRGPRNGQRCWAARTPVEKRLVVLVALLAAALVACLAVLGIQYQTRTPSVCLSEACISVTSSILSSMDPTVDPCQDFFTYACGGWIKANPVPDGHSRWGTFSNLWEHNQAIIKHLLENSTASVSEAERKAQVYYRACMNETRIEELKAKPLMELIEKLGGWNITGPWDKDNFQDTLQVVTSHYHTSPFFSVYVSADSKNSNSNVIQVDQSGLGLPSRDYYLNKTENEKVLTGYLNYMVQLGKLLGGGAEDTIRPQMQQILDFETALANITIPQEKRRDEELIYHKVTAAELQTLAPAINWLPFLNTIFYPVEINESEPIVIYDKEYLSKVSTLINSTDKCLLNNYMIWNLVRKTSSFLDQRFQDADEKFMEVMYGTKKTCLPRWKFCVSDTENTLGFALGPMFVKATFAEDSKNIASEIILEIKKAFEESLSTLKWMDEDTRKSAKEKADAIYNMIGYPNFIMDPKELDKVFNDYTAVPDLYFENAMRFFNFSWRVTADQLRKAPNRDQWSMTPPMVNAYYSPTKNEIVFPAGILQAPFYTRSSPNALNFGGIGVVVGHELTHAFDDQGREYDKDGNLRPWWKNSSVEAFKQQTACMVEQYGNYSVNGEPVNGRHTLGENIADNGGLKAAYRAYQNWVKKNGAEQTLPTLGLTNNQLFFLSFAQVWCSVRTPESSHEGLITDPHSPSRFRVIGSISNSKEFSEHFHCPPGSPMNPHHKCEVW
Procedure: Solubilized crude membranes were prepared in parallel from CHO/ECE-2 and CHO/ECE-1 cells as described (Xu et al., 1994). For protease inhibitor studies, membranes were prepared without protease inhibitors. Standard reaction mixtures for the ECE-2 assay (50 μl) contained 0.1M 2-[N-morpholino]ethanesulfonic acid (MES) buffer (pH 5.5), 0.5M NaCl, 0.1 μM human big ET-1 and an enzyme fraction. ECE-1 assay reactions contained 0.1M phosphate buffer (pH 6.8) instead of the MES buffer. For the pH profiling and isopeptide selectivity studies, the buffer solution (0.1M) or the substrate (0.1 μM) was substituted as designated. For the inhibitor studies, the reactions were preincubated at 37° C. with protease inhibitor or vehicle for 15 min. Reactions were started by the addition of substrate, and incubated at 37° C. for 30 min in siliconized 0.5-ml microcentrifuge tubes. […] The mixture was then directly assayed for mature ET-1 as described (Suzuki et al., 1989). Duplicate assay wells were used for each enzyme reaction. For big ET-2 and big ET-3 conversion assays, mature ET-1 EIA (which fully cross-reacts with mature ET-2) and mature ET-3 EIA were used with human ET-2 and ET-3 as standards, respectively (Matsumoto et al., 1989). Protein concentrations were determined by the Bradford method (Bio-Rad) using IgG as standard.

ECE-2 [4] = biological target: T1, ECE-2; assay: Protease inhibitor assay of ECE-2, solubilized CHO/ECE-2 membranes, big ET-1 conversion, pH 5.5; assay type: biochemical, bovine; settings: for inhibition of ECE-2: in vitro sensitivity to inhibitors; for Percent of control ECE-2 activity remaining with inhibitor: Inhibitor 100 μM, solubilized CHO/ECE-2 membranes, control 100
Procedure: Solubilized crude membranes were prepared in parallel from CHO/ECE-2 and CHO/ECE-1 cells as described (Xu et al., 1994). For protease inhibitor studies, membranes were prepared without protease inhibitors. Standard reaction mixtures for the ECE-2 assay (50 μl) contained 0.1M 2-[N-morpholino]ethanesulfonic acid (MES) buffer (pH 5.5), 0.5M NaCl, 0.1 μM human big ET-1 and an enzyme fraction. […] For the inhibitor studies, the reactions were preincubated at 37° C. with protease inhibitor or vehicle for 15 min. Reactions were started by the addition of substrate, and incubated at 37° C. for 30 min in siliconized 0.5-ml microcentrifuge tubes. […] The mixture was then directly assayed for mature ET-1 as described (Suzuki et al., 1989). Duplicate assay wells were used for each enzyme reaction.

ECE-1 [5] = biological target: T2, ECE-1; assay: Protease inhibitor assay of ECE-1, solubilized CHO/ECE-1 membranes, big ET-1 conversion, pH 6.8; assay type: biochemical, bovine; settings: for inhibition of ECE-1: sensitivity to protease inhibitors, Table 2; for Percent ECE-1 activity remaining with inhibitor (of control): Inhibitor 100 μM, solubilized CHO/ECE-1 membranes, control 100
Procedure: Solubilized crude membranes were prepared in parallel from CHO/ECE-2 and CHO/ECE-1 cells as described (Xu et al., 1994). For protease inhibitor studies, membranes were prepared without protease inhibitors. Standard reaction mixtures for the ECE-2 assay (50 μl) contained 0.1M 2-[N-morpholino]ethanesulfonic acid (MES) buffer (pH 5.5), 0.5M NaCl, 0.1 μM human big ET-1 and an enzyme fraction. ECE-1 assay reactions contained 0.1M phosphate buffer (pH 6.8) instead of the MES buffer. For the pH profiling and isopeptide selectivity studies, the buffer solution (0.1M) or the substrate (0.1 μM) was substituted as designated. For the inhibitor studies, the reactions were preincubated at 37° C. with protease inhibitor or vehicle for 15 min. Reactions were started by the addition of substrate, and incubated at 37° C. for 30 min in siliconized 0.5-ml microcentrifuge tubes. […] The mixture was then directly assayed for mature ET-1 as described (Suzuki et al., 1989). Duplicate assay wells were used for each enzyme reaction. […] Protein concentrations were determined by the Bradford method (Bio-Rad) using IgG as standard.

ECE-2 [6] = biological target: T1, ECE-2; assay: Coculture of CHO/ECE-2 and CHO/preproET-1 cells: cleavage of exogenously supplied big ET-1; assay type: cell-based, bovine; settings: up to 100 μM
Procedure: (§1) Production of mature ET-1 by CHO/ECE-1-CHO/preproET-1 and CHO/ECE-2-CHO/preproET-1 cocultures: Cleavage of exogenously supplied big ET-1. […] Negative control experiments were performed by coculturing parental CHO cells with CHO/preproET-1 cells. Open circles, CHO/ET-1+CHO/ECE-1 (Phos); closed circles, CHO/ET-1+CHO/ECE-1 (FR); open squares, CHO/ET-1+CHO/ECE-2 (Phos); closed squares, CHO/ET-1+CHO/ECE-2 (FR); open triangles, CHO/ET-1+CHO-K1 (Phos).
(§2) This was tested by coculturing the stable transfectant CHO/preproET-1 cells with either CHO/ECE-1 or CHO/ECE-2 cells, and determining the amount of mature ET-1 in the medium.

ECE-1 [7] = biological target: T2, ECE-1; assay: Coculture of CHO/ECE-1 and CHO/preproET-1 cells: cleavage of exogenously supplied big ET-1; assay type: cell-based, bovine
Procedure: as §1, §2

ECE-2 [8] = biological target: T1, ECE-2; assay: Double-transfection live cell assay: mature ET-1 secretion by CHO/ECE-2 cells transfected with preproET-1 cDNA; assay type: cell-based, bovine
Procedure: Production of mature ET-1 by CHO/ECE-2 cells transiently transfected with preproET-1 cDNA: Cleavage of endogenously produced big ET-1. Doubly transfected cells were cultured for 12 h in the absence or presence of the designated concentrations of ECE inhibitors, and mature ET-1 in the conditioned medium was determined. Negative control studies with parental CHO cells are shown by dashed lines.
CHO/ECE-2 cells and untransfected CHO cells were transiently transfected in parallel with a preproET-1 construct, and mature ET-1 secreted from these cells into the medium was determined by EIA.
CHO-K1 cells were cultured as described (Xu et al., 1994). Since many batches of tissue culture-grade trypsin preparations contained high levels of metalloprotease contaminants with an ECE-like activity, a highly purified crystallized preparation of trypsin (Sigma, Catalog No. T7418) was dissolved in phosphate-buffered saline at 0.013% (w/v) and used for all trypsinization procedures. […] Twelve hours after the transient transfection, cells were refed with fresh medium with or without ECE inhibitors. The medium was conditioned for an additional 12 h and directly subjected to enzyme immunoassay (EIA) for mature ET-1 (Suzuki et al., 1989).

[9] = cartilage; literature; cited from earlier work
big ET-1 [10] = assay: pH profile of ECE activity; assay type: biochemical, human
Procedure: FIG. 1B. pH profile of ECE-2. […] Buffers are: open squares, acetate; closed squares, MES; open circles, phosphate; closed circles, Tris; open triangles, glycine.
FIG. 1B is a pH profile of ECE-2. Optimal activity of ECE-2 is at pH 5.5 in contrast to the previously discovered ECE-1, which has optimal activity at pH 6.8. […] In all subsequent studies, ECE-2 assays were performed at pH 5.5. […] A majority of the ECE-2 activity in the CHO/ECE-2 cell homogenates was found in the membrane fraction. No significant ECE-2 activity was detected in the culture supernatants from CHO/ECE-2 cells.
Solubilized crude membranes were prepared in parallel from CHO/ECE-2 and CHO/ECE-1 cells as described (Xu et al., 1994). For protease inhibitor studies, membranes were prepared without protease inhibitors. Standard reaction mixtures for the ECE-2 assay (50 μl) contained 0.1M 2-[N-morpholino]ethanesulfonic acid (MES) buffer (pH 5.5), 0.5M NaCl, 0.1 μM human big ET-1 and an enzyme fraction. ECE-1 assay reactions contained 0.1M phosphate buffer (pH 6.8) instead of the MES buffer. For the pH profiling and isopeptide selectivity studies, the buffer solution (0.1M) or the substrate (0.1 μM) was substituted as designated. […] Protein concentrations were determined by the Bradford method (Bio-Rad) using IgG as standard.

big ET-1 [11] = settings: cited from earlier work

Molecule: big ET-1: Synthetic human big ET-1[1-38] (CSCSSLMDKECVYFCHLDIIWVNTPEHVVPYGLGSPRS; ends and bridges not checked; cysteine pairing not given here; UniProt P05305 53-90, looked up)
relative rate of cleavage by ECE-2 (ECE-2 [1]; 20-40 μg membrane proteins, optimal pH): 100%
Km (ECE-2 [1]; big ET-1 0.01-10 μM, 20 μg crude membrane proteins, 30 min, read-out: apparent Km of ECE-2): 1 to 2 µM
rate of degradation among isopeptides [2]: degraded at similar rates
Km (ECE-1 [3]): 1 to 2 µM

Molecule: ET-2: Synthetic human ET-2 (CSCSSWLDKECVYFCHLDIIW; ends and bridges not checked; cysteine pairing not given here; UniProt P20800 49-69, looked up)
rate of degradation among isopeptides [2]: degraded at similar rates

Molecule: O=C(O)CNC(=O)C(CS)Cc1ccccc1 (stereo not shown) [Thiorphan]
inhibition of ECE-2 (ECE-2 [4]): not inhibited
inhibition of ECE-1 (ECE-1 [5]): not inhibited

Molecule: ET-3: Synthetic human ET-3
rate of degradation among isopeptides [2]: degraded at similar rates

Molecule: O=S(=O)(O)c1cc[c]([Hg][Cl])cc1 [pCMS, p-chloromercuriphenylsulphonic acid]
Percent of control ECE-2 activity remaining with inhibitor (ECE-2 [4]): 345%
inhibition of ECE-2 (ECE-2 [4]): augmented the activity of ECE-2
Percent ECE-1 activity remaining with inhibitor (of control) (ECE-1 [5]): 136%

Molecule: COc1c2c(c(O)c3c1C(O)Cc1cc(CC(C)O)c(C(=O)O)c(O)c1-3)C(=O)c1cccc(O)c1C2=O (stereo not drawn) [FR901533, 1,6,9,14-tetrahydroxy-3-(2-hydroxypropyl)-7-methoxy-8,13-dioxo-5,6,8,13-tetrahydro-benzo[α]naphthacene-2-carboxylate .cndot. Na]
inhibition of ECE-2 (ECE-2 [4]): inhibited; also recorded: efficiently inhibits the conversion of big ET-1 by ECE-2 in vitro
IC50 (ECE-2 [4]; in vitro, pH 5.5): 3 µM
inhibition of mature peptide production, CHO/ECE-2 coculture (ECE-2 [6]): not inhibited
IC50 (ECE-1 [7]): ~1 µM
IC50 (ECE-1 [5]; in vitro, pH 6.8): 2 µM
inhibition of ECE-1 (ECE-1 [5]): inhibited
inhibition of conversion in transfected CHO/ECE-2 cells (ECE-2 [8]; added to medium at up to 1 mM): did not appreciably inhibit the conversion

Molecule: matrix metalloproteinase-3: matrix metalloprotease in cartilage, matrix metalloproteinase-3 (MMP-3; stromelysin-1)
pH optimum [9]: 5.3-5.5

Molecule: ET-1: Synthetic human ET-1; 21-amino-acid peptide
rate of degradation among isopeptides [2]: degraded at similar rates

Molecule: N=C(N)c1ccc(CS(=O)(=O)F)cc1 [APMSF, 4-amidinophenylmethylsulphonyl fluoride]
Percent of control ECE-2 activity remaining with inhibitor (ECE-2 [4]): 93%
Percent ECE-1 activity remaining with inhibitor (of control) (ECE-1 [5]): 107%

inhibition of ECE-2 (ECE-2 [4]): not inhibited
inhibition of ECE-1 (ECE-1 [5]): not inhibited
Molecule: C[C@H](CS)C(=O)N1CCC[C@H]1C(=O)O [Captopril]

total endothelin peptides converted to mature ET-1 (ECE-2 [8]; double-transfection assays): up to 40%
B1: ECE-2: novel membrane-bound metalloprotease; 787-amino-acid polypeptide, SEQ ID NO:2 (protein)
chain: MRARYAHVPTLRWETMDVRALGFPSGSFDVVLEKGTLDALLTGEQDPWTVSSEGVHTVDQVLNEAGFRKRTSRLLGLHTQLELVLAGVSLLLAALLLGCLVALGVQYHRDPSHSTCLTEACIRVAGKILESLDRGVSPCEDFYQFSCGGWIRRNPLPDGRSRWNNSNSLWDQNQAILKHLLENTTFNSSSEAERKTQRFYLSCLQVERIEELGAHALRDLIDKIGGWNVTGPWDQDNFMEVLKAVAGTYRATPFFTVYVSADSKSSNSNIIQVDQSGLFLPSRDYYLNRTANEKVLTAYLDYMEELGMLLGGQPTSTREQMRQVLELEIQLANITVPQDQRRDEEKIYHKMSIAELQALAPSMDWLEFLSFLLSPLELGDSEPVVVYGTDYLQQVSELINRTEPSVLNNYLIWNLVQKTTSSLDHRFESAQEKLLETLYGTKKSCTPRWQTCISNTDDALGFALGSLFVKATFDRQSKEIAEGMISEIRVAFEEALGHLVWMDEKTRQAAKEKADAIYDMIGFPDFILEPKELDDVYDGYEVSEDSFFQNMLNLYNFSAKVMADQLRKPPSRDQWSMTPQTVNAYYLPTKNEIVFPAGILQAPFYTCNHPQALNFGGIGVVMGHELTHAFDDQGREYDKEGNLRPWWQNESLAAFRNHTACIEEQYSQYQVNGEKLNGRQTLGENIADNGGLKAAYNAYKAWLRKHGEEQQLPAVGLTNHQLFFVGFAQVWCSVRTPESSHEGLVTDPHSPARFRVLGTLSNSRDFLRHFGCPVGSPMNSGQLCEVW
pH of optimal activity (big ET-1 [10]; conversion of big ET-1): 5.5
activity at neutral pH (6.8) (big ET-1 [10]; standard ECE-1 assay): virtually inactive

B2: ECE-1: type II membrane-bound metalloprotease that processed endogenously produced big ET-1 (protein, UniProt P42892 1-770, looked up)
Endothelin-converting enzyme 1: MRGVWPPPVSALLSALGMSTYKRATLDEEDLVDSLSEGDAYPNGLQVNFHSPRSGQRCWAARTQVEKRLVVLVVLLAAGLVACLAALGIQYQTRSPSVCLSEACVSVTSSILSSMDPTVDPCHDFFSYACGGWIKANPVPDGHSRWGTFSNLWEHNQAIIKHLLENSTASVSEAERKAQVYYRACMNETRIEELRAKPLMELIERLGGWNITGPWAKDNFQDTLQVVTAHYRTSPFFSVYVSADSKNSNSNVIQVDQSGLGLPSRDYYLNKTENEKVLTGYLNYMVQLGKLLGGGDEEAIRPQMQQILDFETALANITIPQEKRRDEELIYHKVTAAELQTLAPAINWLPFLNTIFYPVEINESEPIVVYDKEYLEQISTLINTTDRCLLNNYMIWNLVRKTSSFLDQRFQDADEKFMEVMYGTKKTCLPRWKFCVSDTENNLGFALGPMFVKATFAEDSKSIATEIILEIKKAFEESLSTLKWMDEETRKSAKEKADAIYNMIGYPNFIMDPKELDKVFNDYTAVPDLYFENAMRFFNFSWRVTADQLRKAPNRDQWSMTPPMVNAYYSPTKNEIVFPAGILQAPFYTRSSPKALNFGGIGVVVGHELTHAFDDQGREYDKDGNLRPWWKNSSVEAFKRQTECMVEQYSNYSVNGEPVNGRHTLGENIADNGGLKAAYRAYQNWVKKNGAEHSLPTLGLTNNQLFFLGFAQVWCSVRTPESSHEGLITDPHSPSRFRVIGSLSNSKEFSEHFRCPPGSPMNPPHKCEVW
pH optimum of previously discovered ECE-1 (big ET-1 [11]): 6.8
